The results in this text go back to US11034724B2, “Crystalline salt forms of Boc-D-Arg-DMT-Lys-(Boc)-Phe-NH2” (Stealth BioTherapeutics Corp., priority 2017, dated 2021).

The structures appear in SMILES notation. ≈ marks a conversion by molar mass, not a printed value. Read-outs that look alike come from different tables or passages of the source. Non-standard residues stand in square brackets, D forms with d. Residues, ends and D or L forms follow the SMILES beside them. *: point of attachment. Dmt = Cc1cc(O)cc(C)c1C[C@H](N)C(=O)O; Boc = CC(C)(C)OC(=O)*

What all share (assay type): physicochemical
Data set [1] in a line: Gravimetric vapour sorption (GVS), hygroscopicity. How it is done: Gravimetric Vapour Sorption (GVS)
Approximately 15 mg of sample was placed into a mesh vapour sorption balance pan and loaded into an IGASorp Moisture Sorption Analyser balance by Hiden Analytical. The sample was subjected to a ramping profile from 40-90% relative humidity (RH) at 10% increments, maintaining the sample at each step until a stable weight had been achieved (98% step completion). After completion of the sorption cycle, the sample was dried using the same procedure to 0% RH, then subjected to a second ramping profile from 0-90% relative humidity. After completion of the second sorption cycle, the sample was dried using the same procedure to 0% RH, and finally taken back to the starting point of 40% RH. The weight change during the sorption/desorption cycles were plotted, allowing for the hygroscopic nature of the sample to be determined.

Data set [2] can be described thus: Approximate solubility assessment (solvent addition technique). To be noted: dichloromethane, 35° C. for dichloromethane, read-out: Approximate Solubility (50° C.).
Assay in data set [3]: as above
How it is done:
Approximate Solubility Assessment of Boc-D-Arg-DMT-Lys(Boc)-Phe-NH2
The solubility screen was carried out as follows: • Approximately 20 mg of Boc-D-Arg-DMT-Lys(Boc)-Phe-NH2 was weighed out into each vial. • Each solvent/solvent mixture was added to the appropriate vial in 5 volume aliquots (100 μL). • In between additions, the sample was stirred at 50° C.
The solubility assessment was estimated by a solvent addition technique, heating at 50° C. between aliquots (see Table 9).

With `Cc1cc(O)cc(C)c1C[C@H](NC(=O)[C@@H](CCCNC(=N)N)NC(=O)OC(C)(C)C)C(=O)N[C@@H](CCCCNC(=O)OC(C)(C)C)C(=O)N[C@@H](Cc1ccccc1)C(N)=O` [Boc-D-Arg-DMT-Lys(Boc)-Phe-NH2] (Boc-[dR][Dmt]K(Boc)F-NH2), in data set [1] (between 40-90% RH, received, predominantly amorphous material), the “Mass increase by GVS” value is “ca. 10%”. In addition, the Hygroscopicity after crystallization result in data set [1] (crystallized material compared with the amorphous input) is “did not show an improvement in terms of hygroscopicity”. In data set [1] (received, predominantly amorphous material), the “Hygroscopicity by GVS analysis” value was “highly hygroscopic”. The solubility (in general, the concentration that dissolves in the medium under given conditions) in data set [2] is under 10 mg/mL; in data set [3] (2-butanol, solvent 2-Butanol, 50° C., read-out: Approximate Solubility (50° C.)), 17 mg/mL (≈ 20.2 mM); in data set [3] (2-propanol, solvent 2-Propanol, 50° C., read-out: Approximate Solubility (50° C.)) it was 14 mg/mL (≈ 16.7 mM); in data set [3] (2-propanol:water (50:50% v/v), solvent 2-propanol:water (50:50% v/v), 50° C., read-out: Approximate Solubility (50° C.)), about 100 mg/mL (≈ 119 mM); in data set [3] (DMSO:acetone (50:50% v/v), solvent DMSO:acetone (50:50% v/v), 50° C., read-out: Approximate Solubility (50° C.)) it was at least 200 mg/mL; in data set [3] (DMSO:water (50:50% v/v), solvent DMSO:water (50:50% v/v), 50° C., read-out: Approximate Solubility (50° C.)), 24 mg/mL (≈ 28.6 mM). Also, the solubility in data set [3] (acetone, solvent Acetone, 50° C., read-out: Approximate Solubility (50° C.)) is under 10 mg/mL; in data set [3] (acetone:water (50:50% v/v), solvent Acetone:water (50:50% v/v), 50° C., read-out: Approximate Solubility (50° C.)), 58 mg/mL (≈ 69 mM); in data set [3] (acetonitrile, solvent Acetonitrile, 50° C., read-out: Approximate Solubility (50° C.)), under 10 mg/mL; in data set [3] (acetonitrile:water (50:50% v/v), solvent Acetonitrile:water (50:50% v/v), 50° C., read-out: Approximate Solubility (50° C.)), at least 200 mg/mL; in data set [3] (all other solvent systems: acetone, dichloromethane, 2-butanol, 2-propanol, methyl ethyl ketone, toluene, THF, ethyl acetate, acetonitrile, read-out: Poor solubility), at most 17 mg/mL; in data set [3] (ethanol, solvent Ethanol, 50° C., read-out: Approximate Solubility (50° C.)), about 140 mg/mL (≈ 167 mM). Also, the solubility in data set [3] (ethanol:water (50:50% v/v), solvent Ethanol:water (50:50% v/v), 50° C., read-out: Approximate Solubility (50° C.)) is about 100 mg/mL (≈ 119 mM); in data set [3] (ethyl acetate, solvent Ethyl acetate, 50° C., read-out: Approximate Solubility (50° C.)), under 10 mg/mL; in data set [3] (in acetone:water (50:50 v/v), methanol:water (50:50 v/v) and DMSO:water (50:50 v/v), 50° C.) it was 58 to 24 mg/mL; in data set [3] (methanol, solvent Methanol, 50° C., read-out: Approximate Solubility (50° C.)) it was at least 200 mg/mL; in data set [3] (methanol:water (50:50% v/v), solvent Methanol:water (50:50% v/v), 50° C., read-out: Approximate Solubility (50° C.)), 45 mg/mL (≈ 53.6 mM); in data set [3] (methyl ethyl ketone, solvent Methyl ethyl ketone, 50° C., read-out: Approximate Solubility (50° C.)), under 10 mg/mL. For the same compound, the solubility is under 10 mg/mL in data set [3] (tetrahydrofuran, solvent Tetrahydrofuran, 50° C., read-out: Approximate Solubility (50° C.)); under 10 mg/mL in data set [3] (toluene, solvent Toluene, 50° C., read-out: Approximate Solubility (50° C.)); at least 200 mg/mL in data set [3] (trifluoroethanol, solvent Trifluoroethanol, 50° C., read-out: Approximate Solubility (50° C.)).
